Values of other authors, collected in US8946301B2, “Targeting of T-lymphocytes to treat amyotrophic lateral sclerosis” (ALS Therapy Development Institute, priority 2011, dated 2015).
Counter-ions that a name gives are not always drawn.

Legend:
[1] = cited from earlier work
[2] = test system: peripheral blood mononuclear cells (lymphocytes and monocytes); conditions: published reports; cited from earlier work
patients with ALS = conditions: Borras-Blasco et al. 1998; cited from earlier work

CCCCCCCCc1ccc(CCC(N)(CO)CO)cc1 [Fingolimod hydrochloride]
solubility in 0.9% saline ([1]; 0.9% saline): soluble | solubility in aqueous buffers at or above pH 3.0 ([1]; aqueous buffers, pH at or above 3.0): very slightly soluble or practically insoluble | solubility in aqueous buffers at or below pH 2.0 ([1]; aqueous buffers, pH at or below 2.0): soluble | solubility in water ([1]; water): > 10%

NC(CO)(CO)CCc1ccc(Sc2cccc(OCc3ccccc3)c2)cc1Cl [KRP-203, 2-amino-2-[2-[2-chloro-4-(3-phenylmethoxyphenyl)sulfanylphenyl]ethyl]propane-1,3-diol]
lymphocyte homing into peripheral lymph nodes [2]: enhanced | number of granulocytes [2]: not | number of peripheral blood mononuclear cells (lymphocytes and monocytes) [2]: reduce the number

Nc1nc2ccc(OC(F)(F)F)cc2s1 [Riluzole™]
muscular strength of ALS patients (patients with ALS): does not appear to provide an improvement of muscular strength
